Patent publication US20100203084A1, “METHOD FOR TREATING PAIN OR OPIOID DEPENDENCE USING A SPECIFIC TYPE OF NON-OPIOID AGENT IN COMBINATION WITH A SELECTIVE EXCITATORY-OPIOID-RECEPTOR INACTIVATOR” (priority 2006, published 2010)
Entries after “also recorded” stand apart in the source; their conditions may differ.

Tests used:
Swiss-Webster mice = details: mouse, in vivo
rodents = details: high doses, administered immediately after training, rodents (ref. 20); cited from earlier work
rodents and humans = details: moderately low doses (˜1 μg/kg), rodents and humans (refs. 20-22); cited from earlier work
[1] = several species, including rat and human (ref. 20); cited from earlier work
[2] = tested on: chronic morphine-dependent mice; assay: naloxone-precipitated withdrawal hyperalgesia in chronic morphine-dependent mice (tail-flick); details: naltrexone 0.1 ng/kg with naloxone, FIG. 9

C[C@H](NC(=O)[C@@H](CC(=O)NO)Cc1ccccc1)C(=O)O [kelatorphan]
effect of kelatorphan on analgesic response to 1 pg/kg rolipram plus 0.1 ng/kg NTX (Swiss-Webster mice): prolongs the duration of the analgesic response
effect on baseline tail-flick latency, kelatorphan alone (Swiss-Webster mice): does not alter baseline tail-flick latency
effect on tail-flick latencies, kelatorphan 0.1 mg/kg cotreatment with rolipram 1 pg/kg (Swiss-Webster mice): prominent analgesia
effect on tail-flick latencies, kelatorphan 1 mg/kg cotreatment with rolipram 1 pg/kg (Swiss-Webster mice): elicits prominent analgesia

CCOC(=O)C1=C[C@@H](OC(CC)CC)[C@H](NC(C)=O)[C@@H](N)C1 [oseltamivir]
effect of cotreatment with 1 pg/kg rolipram in normal mice (Swiss-Webster mice): prominent, long-lasting analgesia

N[C@@H](CCC(=O)O)C(=O)[O-].[Na+] [MSG, monosodium glutamate]
effect on tail-flick latencies, MSG alone, 10-fold-higher dose (Swiss-Webster mice): evokes hyperalgesia
effect on tail-flick latencies, MSG alone, lower dose (Swiss-Webster mice): does not evoke significant hyperalgesia

CC(C)Cn1c(=O)n(C)c(=O)c2[nH]cnc21 [IBMX, 3-isobutyl-1-methylxanthine]
duration of hyperalgesia, IBMX alone (Swiss-Webster mice): > 3 h
effect on tail-flick latencies, IBMX alone (Swiss-Webster mice): long-lasting hyperalgesia
effect on memory in passive avoidance tasks (rodents): improve memory

COC(=O)/C=C/C(=O)N[C@@H]1CC[C@@]2(O)[C@H]3Cc4ccc(O)c5c4[C@@]2(CCN3CC2CC2)[C@H]1O5 [β-FNA, β-funaltrexamine]
effect on tail-flick latencies, ultra-low-dose mu- or kappa-opioid receptor antagonist cotreatment with rolipram (Swiss-Webster mice): block the acute hyperalgesic effects of rolipram and result in prominent analgesia

COc1ccc(C2CNC(=O)C2)cc1OC1CCCC1 (stereo not drawn) [rolipram]
effect on tail-flick latencies, rolipram alone, 1 pg/kg (Swiss-Webster mice): no detectable hyperalgesic effect; also recorded: does not alter baseline tail-flick latency
effect on tail-flick latencies, rolipram alone, 1 μg/kg (Swiss-Webster mice): acute hyperalgesic effects
persistence of effect of a single low dose of rolipram (Swiss-Webster mice): still effective for more than one day
adverse side-effects (rodents and humans): relatively moderate adverse side-effects
effect on memory behavior (rodents and humans): significant enhancement in memory behavior
effect on memory in passive avoidance tasks (rodents): improve memory
absorption after oral administration [1]: absorbed fully and rapidly

CN[C@H](CC(=O)O)C(=O)O [NMDA, N-methyl-D-aspartate]
duration of hyperalgesia, NMDA alone (Swiss-Webster mice): > 5 h
effect on tail-flick latencies, NMDA alone (Swiss-Webster mice): decreases in tail-flick latencies (indicating hyperalgesia)

Oc1ccc2c3c1O[C@H]1c4[nH]c5c(c4C[C@@]4(O)[C@@H](C2)N(CC2CC2)CC[C@]314)C[C@@]1(O)[C@H]2Cc3ccc(O)c4c3[C@@]1(CCN2CC1CC1)[C@H]5O4 [nor-BNI, nor-binaltorphimine]
effect on tail-flick latencies, ultra-low-dose mu- or kappa-opioid receptor antagonist cotreatment with rolipram (Swiss-Webster mice): larger magnitude of analgesia

O=C1CC[C@@]2(O)[C@H]3Cc4ccc(O)c5c4[C@@]2(CCN3CC2CC2)[C@H]1O5 [NTX, naltrexone]
effect of cotreatment with 1 pg/kg rolipram in normal mice (Swiss-Webster mice): prominent, long-lasting analgesia
effect of delayed high-dose NTX on analgesia from rolipram 1 μg/kg plus CTX-B (Swiss-Webster mice): rapidly blocked
effect of delayed much higher dose of NTX in MSG + NTX cotreated mice (Swiss-Webster mice): blocked both hyperalgesia and analgesia
effect of high-dose NTX on analgesia from glutamic acid cotreatment (Swiss-Webster mice): rapid attenuation of the initially prominent analgesia
effect of high-dose NTX on analgesia from non-narcotic cotreatment (Swiss-Webster mice): antagonized rapidly
effect of second dose of NTX alone 24 h after initial cotreatment with rolipram 1 μg/kg (Swiss-Webster mice): evoked significant analgesia
effect of second injection of high-dose NTX on NMDA-evoked hyperalgesia and NMDA+NTX analgesia (Swiss-Webster mice): rapid attenuation of the initially prominent hyperalgesia
effect of ultra-low-dose NTX co-administered with thousand- to million-fold lower dose of rolipram (Swiss-Webster mice): remarkable degree of opioid receptor-mediated, long-lasting analgesia
effect of ultra-low-dose NTX cotreatment on hyperalgesia evoked by glutamate, NMDA, IBMX or rolipram (Swiss-Webster mice): rapidly blocked and reversed to prominent, long-lasting analgesia
effect on tail-flick latencies, cotreatment with 1 mg/kg NMDA (Swiss-Webster mice): blocked NMDA-evoked hyperalgesia, and resulted in prominent analgesia
effect on tail-flick latencies, cotreatment with 1 mg/kg glutamic acid (Swiss-Webster mice): blocked glutamic-acid-evoked hyperalgesia, and resulted in prominent analgesia
effect on tail-flick latencies, cotreatment with 10 mg/kg IBMX, high-dose NTX (Swiss-Webster mice): not only blocked IBMX-evoked hyperalgesia, but also blocked onset of analgesia during the first hour after dosing
effect on tail-flick latencies, cotreatment with MSG 1 mg/kg (Swiss-Webster mice): Prominent analgesia
effect on tail-flick latencies, cotreatment with rolipram 1 pg/kg (Swiss-Webster mice): remarkably similar degree of analgesia
effect on tail-flick latencies, cotreatment with rolipram 1 μg/kg (Swiss-Webster mice): results in prominent analgesia
effect on tail-flick latencies, inactivator alone (control) (Swiss-Webster mice): no alterations in tail-flick latencies
effect on tail-flick latencies, cotreatment with 10 mg/kg IBMX, ultra-low-dose NTX (Swiss-Webster mice; sc): blocked IBMX-evoked hyperalgesia, and resulted in prominent analgesia
effect on tail-flick latencies, cotreatment with 10-fold-higher dose of MSG (Swiss-Webster mice; sc): Prominent analgesia
effect of ultra-low-dose naltrexone cotreatment on naloxone-precipitated withdrawal hyperalgesia [2]: rapidly converted to analgesia

NC(CCC(=O)O)C(=O)O (racemic) [glutamic acid, dl-glutamic acid]
duration of hyperalgesia, glutamic acid alone (Swiss-Webster mice): > 6 h
effect on tail-flick latencies, glutamic acid alone (Swiss-Webster mice): long-lasting hyperalgesia
